Each compound was assayed against Human eIF4E (Homo sapiens (Human), UniProt P06730) (assay: Human eIF4E/4G binding assay (time-resolved fluorescence, HH-eIF4E and biotin-labeled 4G2 peptide)). Conditions: inhibition of binding of His-tagged human eIF4E (aa 28-217) to biotin-labeled 4G2 peptide.
Description: The protein was solubilized with 8 M urea and purified under denaturing conditions using nickel-charged HisTrap HP columns (GE Healthcare). The protein was refolded by diluting to approximately 0.25 mg/mL with 6 M urea, 20 mM Hepes pH 7.0, 500 mM NaCl, 1 mM DTT, 1 mM EDTA, and 0.5 M arginine.HCl, and then dialyzing overnight into the same buffer without the urea. The protein was further dialyzed into 20 mM Hepes pH 6.5, 50 mM NaCl, 1 mM EDTA, and 1 mM DTT, filtered, and then concentrated using Hitrap SP sepharose FF columns (GE Healthcare). The protein was dialyzed into 20 mM Hepes pH 7.0, 500 mM NaCl, 5 mM DTT, and 10% glycerol and stored at −80° C. until use. Test compounds (1.6 mM stock in DMSO) were diluted 3 fold in series in DMSO. Compound solutions were diluted 4 fold in Assay Buffer (50 mM sodium phosphate, pH 6.5, 50 mM KCl, 1 mM DTT and 0.5 mg/mL gammaglobulin). […] The samples were incubated at room temperature for 20 minutes. […] IC50 values were calculated using Condoseo software (Genedata AG).

Human eIF4E, sequence (P06730 28-217): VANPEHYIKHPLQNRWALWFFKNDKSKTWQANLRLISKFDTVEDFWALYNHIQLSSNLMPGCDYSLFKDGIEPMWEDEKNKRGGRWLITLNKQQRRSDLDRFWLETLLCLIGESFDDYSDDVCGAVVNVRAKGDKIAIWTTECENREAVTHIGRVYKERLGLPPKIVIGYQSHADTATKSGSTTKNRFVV

IC50 [µM] | Structure (SMILES)
1.5 | COc1ccc(-c2ccc(-c3nc(-c4ccc(Cl)c(Cl)c4)cs3)cc2C(=O)O)c(Cl)c1 [Example 94, 2′-Chloro-4-[4-(3,4-dichloro-phenyl)-thiazol-2-yl]-4′-methoxy-biphenyl-2-carboxylic acid]
1.7 | N#Cc1ccc(-c2ccc(-c3nc(-c4ccc(Cl)c(Cl)c4)cs3)cc2C(=O)O)cc1Cl [Example 114, 3′-Chloro-4′-cyano-4-[4-(3,4-dichloro-phenyl)-thiazol-2-yl]-biphenyl-2-carboxylic acid]
2 | CCOc1ccc(-c2ccc(-c3nc(-c4ccc(Cl)c(Cl)c4)cs3)cc2C(=O)O)c(Cl)c1 [Example 89, 2′-Chloro-4-[4-(3,4-dichloro-phenyl)-thiazol-2-yl]-4′-ethoxy-biphenyl-2-carboxylic acid]
1.1 | O=C(O)c1cc(-c2nc(-c3ccc(Cl)c(Cl)c3)cs2)ccc1-c1cc(C(F)(F)F)ccc1Cl [Example 128, 2′-Chloro-4-[4-(3,4-dichloro-phenyl)-thiazol-2-yl]-5′-trifluoromethyl-biphenyl-2-carboxylic acid]
7.7 | CC(=O)c1ccccc1-c1ccc(-c2nc(-c3ccc(Cl)c(Cl)c3)cs2)cc1C(=O)O [Example 117, 2′-Acetyl-4-[4-(3,4-dichloro-phenyl)-thiazol-2-yl]-biphenyl-2-carboxylic acid]
2.2 | O=C(O)c1cc(-c2nc(-c3ccc(Cl)c(Cl)c3)cs2)ccc1-c1ccccc1Cl [Example 153, 2′-Chloro-4-[4-(3,4-dichloro-phenyl)-thiazol-2-yl]-biphenyl-2-carboxylic acid]
7.7 | CC(=O)c1cccc(-c2ccc(-c3nc(-c4ccc(Cl)c(Cl)c4)cs3)cc2C(=O)O)c1 [Example 116, 3′-Acetyl-4-[4-(3,4-dichloro-phenyl)-thiazol-2-yl]-biphenyl-2-carboxylic acid]
1.3 | Cc1cc(C#N)ccc1-c1ccc(-c2nc(-c3ccc(Cl)c(Cl)c3)cs2)cc1C(=O)O [Example 105, 4′-Cyano-4-[4-(3,4-dichloro-phenyl)-thiazol-2-yl]-2′-methyl-biphenyl-2-carboxylic acid]
5.1 | Cc1ccc(C=O)c(-c2ccc(-c3nc(-c4ccc(Cl)c(Cl)c4)cs3)cc2C(=O)O)c1 [Example 122, 4-[4-(3,4-Dichloro-phenyl)-thiazol-2-yl]-2′-formyl-5′-methyl-biphenyl-2-carboxylic acid]
3.6 | O=C(O)c1cc(-c2nc(-c3ccc(Cl)c(Cl)c3)cs2)ccc1-c1ccccc1F [Example 137, 4-[4-(3,4-Dichloro-phenyl)-thiazol-2-yl]-2′-fluoro-biphenyl-2-carboxylic acid]
8.5 | O=C(O)c1cc(-c2nc(-c3ccc(Cl)c(Cl)c3)cs2)ccc1-c1ccncc1 [Example 103, 5-[4-(3,4-Dichloro-phenyl)-thiazol-2-yl]-2-pyridin-4-yl-benzoic acid]
1.8 | COc1cccc(Cl)c1-c1ccc(-c2nc(-c3ccc(Cl)c(Cl)c3)cs2)cc1C(=O)O [Example 90, 2′-Chloro-4-[4-(3,4-dichloro-phenyl)-thiazol-2-yl]-6′-methoxy-biphenyl-2-carboxylic acid]
3 | O=C(O)c1cc(-c2nc(-c3ccc(Cl)c(Cl)c3)cs2)ccc1-c1ccc(F)cn1 [Example 100, 5-[4-(3,4-Dichloro-phenyl)-thiazol-2-yl]-2-(5-fluoro-pyridin-2-yl)-benzoic acid]
2.1 | O=C(O)c1cc(-c2nc(-c3ccc(Cl)c(Cl)c3)cs2)ccc1-c1cccc(Cl)c1Cl [Example 152, 2′,3′-Dichloro-4-[4-(3,4-dichloro-phenyl)-thiazol-2-yl]-biphenyl-2-carboxylic acid]

Further lines, the compound ahead of its results:

Structure (SMILES) | IC50 [µM]
Cc1cc(C(=O)O)ccc1-c1ccc(-c2nc(-c3ccc(Cl)c(Cl)c3)cs2)cc1C(=O)O [Example 79, 4-[4-(3,4-Dichloro-phenyl)-thiazol-2-yl]-2′-methyl-biphenyl-2,4′-dicarboxylic acid] | 5.4
O=C(O)c1cc(-c2nc(-c3cccnc3)cs2)ccc1-c1ccccc1[N+](=O)[O-] [Example 38, 2′-Nitro-4-(4-pyridin-3-yl-thiazol-2-yl)-biphenyl-2-carboxylic acid] | > 80
CC(=O)N1CCC(NC(=O)c2ccc(-c3ccc(-c4nc(-c5ccc(Cl)c(Cl)c5)cs4)cc3C(=O)O)cc2)CC1 [Example 52, 4′-(1-Acetyl-piperidin-4-ylcarbamoyl)-4-[4-(3,4-dichloro-phenyl)-thiazol-2-yl]-biphenyl-2-carboxylic acid] | 10
CN1CCC(NC(=O)c2ccc(-c3ccc(-c4nc(-c5ccc(Cl)c(Cl)c5)cs4)cc3C(=O)O)cc2)CC1 [Example 51, 4-[4-(3,4-Dichloro-phenyl)-thiazol-2-yl]-4′-(1-methyl-piperidin-4-ylcarbamoyl)-biphenyl-2-carboxylic acid] | > 80
COc1ccc(-c2ccc(-c3nc(-c4ccc(Cl)c(Cl)c4)cs3)cc2C(=O)O)c(C(F)(F)F)c1 [Example 87, 4-[4-(3,4-Dichloro-phenyl)-thiazol-2-yl]-4′-methoxy-2′-trifluoromethyl-biphenyl-2-carboxylic acid] | 1.3
O=C(O)c1cc(-c2nc(-c3ccc(C(F)(F)F)cc3)cs2)ccc1-c1ccccc1[N+](=O)[O-] [Example 7, 2′-Nitro-4-[4-(4-trifluoromethyl-phenyl)-thiazol-2-yl]-biphenyl-2-carboxylic acid] | 2.4
O=C(O)c1cc(-c2nc(-c3ccc(OC(F)(F)F)cc3)cs2)ccc1-c1ccccc1[N+](=O)[O-] [Example 2, 2′-Nitro-4-[4-(4-trifluoromethoxy-phenyl)-thiazol-2-yl]-biphenyl-2-carboxylic acid] | 2.6
Cc1cc(-c2csc(-c3ccc(-c4ccccc4[N+](=O)[O-])c(C(=O)O)c3)n2)ccc1Cl [Example 9, 4-[4-(4-Chloro-3-methyl-phenyl)-thiazol-2-yl]-2′-nitro-biphenyl-2-carboxylic acid] | 5.9
O=C(O)c1cc(-c2nc(-c3cccc(Cl)c3)cs2)ccc1-c1ccccc1[N+](=O)[O-] [Example 17, 4-[4-(3-Chloro-phenyl)-thiazol-2-yl]-2′-nitro-biphenyl-2-carboxylic acid] | 3.1
O=C(O)c1cc(-c2nc(-c3ccc(Cl)c(Cl)c3)cs2)ccc1-c1cc(C(F)(F)F)ccc1[N+](=O)[O-] [Example 4, 4-[4-(3,4-Dichloro-phenyl)-thiazol-2-yl]-2′-nitro-5′-trifluoromethyl-biphenyl-2-carboxylic acid] | 2
COc1cccc(CNC(=O)c2ccc(-c3ccc(-c4nc(-c5ccc(Cl)c(Cl)c5)cs4)cc3C(=O)O)cc2)c1 [Example 65, 4-[4-(3,4-Dichloro-phenyl)-thiazol-2-yl]-4′-(3-methoxy-benzylcarbamoyl)-biphenyl-2-carboxylic acid] | 1.3
O=C(O)c1cc(-c2nc(-c3ccc(Cl)cc3Cl)cs2)ccc1-c1ccccc1[N+](=O)[O-] [Example 10, 4-[4-(2,4-Dichloro-phenyl)-thiazol-2-yl]-2′-nitro-biphenyl-2-carboxylic acid] | 3.5
COc1ccc(-c2ccc(-c3nc(-c4ccc(Cl)c(Cl)c4)cs3)cc2C(=O)O)c([N+](=O)[O-])c1 [Example 28, 4-[4-(3,4-Dichloro-phenyl)-thiazol-2-yl]-4′-methoxy-2′-nitro-biphenyl-2-carboxylic acid] | 3.2
O=C(NCc1ccccc1F)c1ccc(-c2ccc(-c3nc(-c4ccc(Cl)c(Cl)c4)cs3)cc2C(=O)O)cc1 [Example 74, 4-[4-(3,4-Dichloro-phenyl)-thiazol-2-yl]-4′-(2-fluoro-benzylcarbamoyl)-biphenyl-2-carboxylic acid] | 2.5
Cc1ccc(-c2csc(-c3ccc(-c4ccccc4[N+](=O)[O-])c(C(=O)O)c3)n2)c(C)c1 [Example 40, 4-[4-(2,4-Dimethyl-phenyl)-thiazol-2-yl]-2′-nitro-biphenyl-2-carboxylic acid] | 4.2
O=C(O)c1cc(-c2nc(-c3cc(Cl)ccc3Cl)cs2)ccc1-c1ccccc1[N+](=O)[O-] [Example 12, 4-[4-(2,5-Dichloro-phenyl)-thiazol-2-yl]-2′-nitro-biphenyl-2-carboxylic acid] | 2.9
CN(C)CCNC(=O)c1ccc(-c2ccc(-c3nc(-c4ccc(Cl)c(Cl)c4)cs3)cc2C(=O)O)cc1 [Example 49, 4-[4-(3,4-Dichloro-phenyl)-thiazol-2-yl]-4′-(2-dimethylamino-ethylcarbamoyl)-biphenyl-2-carboxylic acid] | > 80
O=C(NCCN1CCOCC1)c1ccc(-c2ccc(-c3nc(-c4ccc(Cl)c(Cl)c4)cs3)cc2C(=O)O)cc1 [Example 59, 4-[4-(3,4-Dichloro-phenyl)-thiazol-2-yl]-4′-(2-morpholin-4-yl-ethylcarbamoyl)-biphenyl-2-carboxylic acid] | > 80
O=C(NCc1ccc(F)cc1)c1ccc(-c2ccc(-c3nc(-c4ccc(Cl)c(Cl)c4)cs3)cc2C(=O)O)cc1 [Example 72, 4-[4-(3,4-Dichloro-phenyl)-thiazol-2-yl]-4′-(4-fluoro-benzylcarbamoyl)-biphenyl-2-carboxylic acid] | 1.5
O=C(O)c1cc(-c2nc(-c3ccc(OC(F)F)cc3)cs2)ccc1-c1ccccc1[N+](=O)[O-] [Example 3, 4-[4-(4-Difluoromethoxy-phenyl)-thiazol-2-yl]-2′-nitro-biphenyl-2-carboxylic acid] | 9.9
